SMILES strings stand for the structures.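 Dose response: 5 concentrations. Exposure: 48 h. Format: 96-well plates. Endpoint: linear interpolation; highest concentration if not reached. At the GI50, growth is halved. The concentration for full growth arrest is given as TGI.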

Test systems include ACHN renal; HOP-92 NSCLC; IGROV1 ovarian; HT29 colon; SK-MEL-28 melanoma; CAKI-1 renal; HL-60(TB) leukemia; MCF7 breast.
What all share (assay): NCI tumour cell line growth inhibition, 48 h

Take `CC(=O)N1c2ccccc2Sc2cc(C(O)(C(F)(F)F)C(F)(F)F)ccc21`: the TGI in the test with ACHN renal, in the test with HOP-92 NSCLC, in the test with IGROV1 ovarian, in the test on HT29 colon, in the test with SK-MEL-28 melanoma and in the test on CAKI-1 renal was > 10 µM each time. In addition, the TGI in the test with HL-60(TB) leukemia and in the test on MCF7 breast was > 10 µM each time.
For `COc1nc(C)cc2c(=O)n(-c3ccccc3)n(CCCN3CCN(c4ccc(Cl)cc4)CC3)c(=O)c12`, the GI50 in the test with ACHN renal was > 50 µM; with HOP-92 NSCLC, 10 µM; in the test on IGROV1 ovarian, > 50 µM; in the test on HT29 colon it was > 50 µM; in the test with SK-MEL-28 melanoma it was > 50 µM; in the test with CAKI-1 renal, 38.2 µM. Further, the GI50 is > 50 µM in the test with HL-60(TB) leukemia and 37.7 µM in the test with MCF7 breast. Moreover, the TGI in the test on ACHN renal was > 50 µM; with HOP-92 NSCLC, 41.6 µM; in the test on IGROV1 ovarian, > 50 µM; in the test with HT29 colon it was > 50 µM; in the test on SK-MEL-28 melanoma, > 50 µM; with CAKI-1 renal, > 50 µM. For the same molecule, the TGI in the test on HL-60(TB) leukemia and with MCF7 breast was > 50 µM in each case.
In the case of `O=C1CCC2(C=C(Br)C(=O)C(Br)=C2)O1`, the GI50 was 1.78 µM in the test with ACHN renal; 3.07 µM with HOP-92 NSCLC; 6.59 µM in the test with IGROV1 ovarian; 2.89 µM in the test on HT29 colon; 1.69 µM in the test with SK-MEL-28 melanoma; 0.611 µM in the test on CAKI-1 renal. For the same molecule, the GI50 in the test with HL-60(TB) leukemia is 1.4 µM; with MCF7 breast, 3.57 µM. Also, the TGI with ACHN renal is 3.19 µM; in the test with HOP-92 NSCLC it was 8.89 µM; with IGROV1 ovarian, 15.6 µM; in the test on HT29 colon it was 7.82 µM; in the test on SK-MEL-28 melanoma, 3.87 µM; in the test with CAKI-1 renal, 1.91 µM. Moreover, the TGI in the test with HL-60(TB) leukemia came out at 6.18 µM; in the test with MCF7 breast it was 15.7 µM.
`N=C(N)CCCCCCCCC(=N)N`: the GI50 was > 100 µM in the test on ACHN renal; 19.1 µM in the test with HOP-92 NSCLC; 52.9 µM with IGROV1 ovarian; 26.3 µM with HT29 colon; 58.1 µM in the test with SK-MEL-28 melanoma; 7.37 µM with CAKI-1 renal. Moreover, the GI50 in the test with HL-60(TB) leukemia was 29.5 µM; in the test with MCF7 breast it was 25.7 µM. For the same molecule, the TGI in the test with ACHN renal, in the test with HOP-92 NSCLC, in the test with IGROV1 ovarian, in the test on HT29 colon, with SK-MEL-28 melanoma and with CAKI-1 renal was > 100 µM each time. The TGI in the test with HL-60(TB) leukemia and in the test with MCF7 breast was > 100 µM in each case.
Take `OCCCCC#Cc1ccccc1C#Cc1ccccc1C(F)(F)F`: the GI50 was 11.4 µM with ACHN renal; 6.14 µM with HOP-92 NSCLC; 11.2 µM with IGROV1 ovarian; 4.01 µM in the test on HT29 colon; 13.2 µM in the test on SK-MEL-28 melanoma; 5.37 µM with CAKI-1 renal. Besides, the GI50 in the test on MCF7 breast was 10.6 µM. The TGI was found to be 23.5 µM in the test with ACHN renal; 18.4 µM with HOP-92 NSCLC; 23.2 µM in the test on IGROV1 ovarian; 16.5 µM with HT29 colon; 28.5 µM in the test on SK-MEL-28 melanoma; 17.9 µM with CAKI-1 renal. In the test on MCF7 breast, the TGI is 31.6 µM.
In the case of `COC(=O)Nc1nc2ccccc2c(=O)[nH]1`, the TGI with ACHN renal, in the test on IGROV1 ovarian, in the test with HT29 colon, with SK-MEL-28 melanoma, in the test on CAKI-1 renal and with HL-60(TB) leukemia was > 100 µM throughout. Besides, the TGI in the test with MCF7 breast was > 100 µM.
For the molecule `Cc1nc2cccc(NCc3ccc(C(=O)NO)cc3)c2c(=O)n1-c1ccccc1`, the GI50 is 1.62 µM in the test with ACHN renal; 1.93 µM in the test with HOP-92 NSCLC; 2.81 µM with HT29 colon; 1.97 µM in the test on SK-MEL-28 melanoma; 1.67 µM in the test with CAKI-1 renal; 2.87 µM with HL-60(TB) leukemia. For the same molecule, the GI50 with MCF7 breast was 2.89 µM. In addition, the TGI came out at 3.33 µM in the test on ACHN renal; 4.46 µM in the test on HOP-92 NSCLC; 11.6 µM in the test with HT29 colon; 3.92 µM in the test on SK-MEL-28 melanoma; 3.62 µM in the test with CAKI-1 renal; 10.2 µM in the test with HL-60(TB) leukemia. The molecule also came in with a TGI in the test on MCF7 breast of 38.9 µM.
For `C=C(CN1CCc2ccccc2C1)c1ccc(C(=O)Nc2ccc(N)cc2)cc1`, the GI50 in the test on ACHN renal was 30 µM; with HOP-92 NSCLC, 0.0854 µM; in the test with HT29 colon, 19.6 µM; in the test with SK-MEL-28 melanoma it was 24.9 µM; in the test on CAKI-1 renal, 19.6 µM; in the test with HL-60(TB) leukemia, 7.07 µM. The GI50 with MCF7 breast is 14.8 µM. The TGI in the test with ACHN renal is > 100 µM; in the test with HOP-92 NSCLC, 12.7 µM; with HT29 colon it was 43.2 µM; in the test with SK-MEL-28 melanoma, 72.5 µM; with CAKI-1 renal, > 100 µM; in the test on HL-60(TB) leukemia it was 36.7 µM. Moreover, in the test with MCF7 breast, the TGI was > 100 µM.
In the case of `Nc1ccccc1C#C/C=C\C#Cc1ccc(Cl)cc1Cl`, the GI50 in the test with ACHN renal was 20.9 µM; in the test with HOP-92 NSCLC it was 17 µM; in the test on IGROV1 ovarian it was 14.8 µM; with HT29 colon, 15.1 µM; in the test with SK-MEL-28 melanoma, 27 µM; in the test on CAKI-1 renal it was 3.38 µM. For the same molecule, in the test with MCF7 breast, the GI50 was 3.52 µM. The TGI with ACHN renal is 41.7 µM; in the test with HOP-92 NSCLC it was 48.1 µM; in the test on IGROV1 ovarian it was 38.7 µM; in the test on HT29 colon it was > 100 µM; in the test with SK-MEL-28 melanoma, > 100 µM; in the test with CAKI-1 renal, 13.5 µM. This molecule also returned a TGI with MCF7 breast of 39.7 µM.
Regarding `CC(C(=O)Oc1ccc2ccccc2c1-c1c(O)ccc2ccccc12)c1ccccc1` (configuration not stated), the TGI worked out at 26.6 µM in the test with ACHN renal; 23.5 µM in the test with HOP-92 NSCLC; 34.9 µM with IGROV1 ovarian; 28.8 µM in the test with HT29 colon; 29.2 µM in the test on SK-MEL-28 melanoma; 24 µM in the test on CAKI-1 renal. For the same molecule, the TGI with HL-60(TB) leukemia is 35.1 µM.
Regarding `COC(=O)C(Nc1ccc(OC)cc1)c1ccccc1` (configuration not stated), the TGI in the test with ACHN renal, in the test on IGROV1 ovarian, in the test on HT29 colon, in the test on SK-MEL-28 melanoma, in the test on CAKI-1 renal and with MCF7 breast was > 100 µM each time.

Source of the values: PubChem BioAssay (NCI).
